# Test results published in patent publication US20070259966A1, “Coadministration of Radiation, Efaproxiral Sodium, and Supplemental Oxygen for the Treatment of Cancer” (ALLOS THERAPEUTICS, INC., priority 2004, published 2007).
# How the values were obtained:
# [1] = tested on: patients with brain metastases; experiment: Quality of life: Spitzer Questionnaire (SQ); assay type: in vivo, human
# Experimental: (§1) C. Quality of Life. Quality of life was determined by means of the Spitzer Questionnaire (SQ) and Karnofsky Performance Status (KPS) assessment. The tests were performed at baseline, at WBRT day 10, and at all routine follow-up visits. A sustained drop in the KPS score to less than 60 was defined as a significant drop. The 5 questions comprising the Spitzer Questionnaire were weighted evenly. For each evaluation with at least 3 out of 5 questions answered, an average score was computed for each patient. Questionnaires with fewer than 3 questions answered were treated as missing data. The protocol specified a sustained drop in the Spitzer Questionnaire score of 2 points constituted a significant drop.
# [2] = molecular target: T1, hemoglobin (Homo sapiens, UniProt P68871+P69905); experiment: Predicted p50 shift from RBC concentration; assay type: in vivo; conditions: at RBC concentration >483 μg/ml
# T1 construct: endogenous in cells; host or cells: red blood cells of treated patients (in vivo)
# T1 sequence (P69905 2-142 limits assumed): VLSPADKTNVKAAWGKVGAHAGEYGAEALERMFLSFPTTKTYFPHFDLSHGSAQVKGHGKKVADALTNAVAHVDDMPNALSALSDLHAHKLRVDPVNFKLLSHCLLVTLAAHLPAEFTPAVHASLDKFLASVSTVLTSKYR
# T1 sequence (P68871 2-147 limits assumed): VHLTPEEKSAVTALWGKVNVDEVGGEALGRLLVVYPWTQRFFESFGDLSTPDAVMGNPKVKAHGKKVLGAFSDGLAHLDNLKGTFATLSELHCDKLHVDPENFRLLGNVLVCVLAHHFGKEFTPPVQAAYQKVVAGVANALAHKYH
# Experimental: Sometimes, efaproxiral sodium is represented by the name 2-[4-[2-[(3,5-dimethylphenyl)amino]-2-oxoethyl]phenoxy]-2-methylpropanoic acid. In general efaproxiral sodium is administered as a physiologically acceptable salt, such as the monosodium salt; that is, X+ is Na+. Efaproxiral sodium induces allosteric modification of hemoglobin, such that its binding affinity for oxygen is decreased, resulting in increased oxygen distribution to tissues by erythrocytes.
# (§2) Plasma and red blood cell (RBC) drug concentration were assayed on 2 days during the course of efaproxiral sodium administration: WBRT day 1 (end-infusion) and on 1 single day between WBRT days 6 and 10 (pre-infusion and end-infusion assays). Regression analysis was used to explore the relationship between trough and peak concentrations and continuous clinical covariates (eg, age, serum albumin, hematocrit, serum creatinine, etc). […] A dose of efaproxiral sodium was considered predicatably therapeutic if it achieved a sufficient RBC concentration (>483 μg/ml), and corresponded to a predicted p50 shift of 10 mmHg.
# [3] = Plasma and red blood cell (RBC) drug concentration; assay type: in vivo, human
# Experimental: as §2
# [4] = tested on: patients with brain metastases; experiment: Quality of life: Karnofsky Performance Status (KPS); assay type: in vivo, human
# Experimental: as §1
# [5] = tested on: patients with brain metastases; experiment: Safety / treatment-emergent adverse events in the controlled study; assay type: in vivo, human
# Experimental: Depending upon an individual patient's resaturation time (time required to recover to a stable ≧90% SpO2 on room air) following efaproxiral sodium plus WBRT, supplemental oxygen use may be required for as little as 30 minutes to more than 4 hours. […] During this period of decreased oxygen saturation, patients require continuous SpO2 monitoring. If the desired SpO2 of ≧90% while breathing room air is not achieved, supplemental oxygen is to be continued and increased to a flow of 6-8 L/min, if necessary, until the SpO2 while breathing room air is stabilized at ≧90%.
# Patients with brain metastases were administered efaproxiral sodium in a total dose of 0-100 mg/kg per day based on the dosing guidelines detailed above. In general, efaproxiral sodium is administered by intravenous infusion through a central venous access device over 30 minutes at a dose of 75 or 100 mg/kg daily with concurrent supplemental oxygen. Oxygen must be administered at 4 L/min via nasal cannula or facemask beginning 5 minutes prior to initiation of infusion, during infusion and WBRT, and for at least 15 minutes after completion of daily WBRT. Efaproxiral sodium is administered every day of a fractionated course of WBRT. Except when contraindicated, WBRT must be administered within 30 minutes of the end of the efaproxiral sodium infusion.
# The patients were given the drug in one dose. Efaproxiral sodium was administered via central venous access with flow rate controlled by volumetric pump over a 30-45 minute interval with end-infusion no longer than 30 minutes prior to each radiation dose of a 10-day course of WBRT. Efaproxiral sodium was formulated as a sterile solution for injection and was supplied in single-use glass bottles containing 10 g efaproxiral sodium in 500 mL of 0.225% NaCl at a concentration of 20 mg/mL. Efaproxiral sodium was administered during the 10-day course of WBRT, for a maximum of 10 doses. A control group received radiation and supplemental oxygen only.
# The majority of treatment-emergent adverse events were Grade 1 or 2 in severity, resolved spontaneously or within the duration of the study, and responded well to concomitant treatment with antiemetics for nausea/vomiting, nonsteroidal anti-inflammatory drugs for headache, supplemental oxygen for hypoxemia. […] Muscle weakness and dyspnea (reported in 3% of patients) were the most commonly reported Grade 3 adverse events in Control patients and both events were reported as a Grade 4 event in 1 patient each. The most commonly reported Grade 4 adverse event in both treatment and control groups was disease progression (reported in 6% of both groups).
smiles,measurement,setting,value
"Cc1cc(C)cc(NC(=O)Cc2ccc(OC(C)(C)C(=O)O)cc2)c1 [efaproxiral sodium, 2-[4-(((3,5-dimethylanilino)carbonyl)methyl)phenoxy]-2-methylpropionic acid]","patients with stable or improving SQ scores, (%)",[1]; 1 month,(42) %
same,"patients with stable or improving SQ scores, (%)",[1]; 3 months,(23) %
same,"patients with stable or improving SQ scores, (%)",[1]; 6 months,(16) %
same,"patients with stable or improving SQ scores, (%)",[1]; 12 months,(9) %
same,percentage of patients with stable or improving SQ scores over time versus Control,"[1]; χ2=3.4675, p=0.0626",trend toward a higher percentage
same,predicted p50 shift,[2],10 mmHg
same,drug accumulation in RBCs,[3]; WBRT week 2 preinfusion concentrations,No clinically relevant drug accumulation
same,"concentrations in RBCs, higher body weight versus low weight patients",[3]; at a given dose,higher
same,"concentrations in RBCs, breast primary versus NSCLC and other primary patients",[3]; in vivo,higher
same,change of concentrations in RBCs with dose,[3]; patients dosed at 75 or 100 mg/kg,proportional increase
same,"patients with stable or improving KPS scores, (%)",[4]; 1 month,(44) %
same,"patients with stable or improving KPS scores, (%)",[4]; 3 months,(24) %
same,"patients with stable or improving KPS scores, (%)",[4]; 6 months,(18) %
same,"patients with stable or improving KPS scores, (%)",[4]; 12 months,(7) %
same,distribution of KPS score categories between treatment groups,"[4]; breast primary, 6 months and 1 year (p=0.0046 and p=0.0070)",statistically significant difference
same,percentage of patients with stable or improving KPS scores over time versus Control,"[4]; χ2=9.0096, p=0.0027",highly statistically significant
same,Grade 4 hypoxemia,[5]; in vivo,no Grade 4 hypoxemia was reported
same,severity of the majority of treatment-emergent adverse events,[5]; in vivo,Grade 1 or 2
same,duration of supplemental oxygen required after completion of WBRT,"[5]; majority of doses, patients with brain metastases from breast cancer",one hour or less
same,"Grade 3 hypoxemia, patients reporting",[5]; most commonly reported Grade 3 adverse event,11%
same,"Grade 4 disease progression, patients reporting",[5]; most commonly reported Grade 4 adverse event,6%
